Literature values as cited in US20160081962A1, “N[…] DIETARY S[…] ACIDS AND NITRITE” (NITROMEGA CORP., priority 2013, published 2016).

Conditions: exogenous NO3^− intake 10 mg/kg in humans; in 30 min

O=[N+]([O-])O [NO3^−, nitrate]
increase of plasma NO2^− concentration: up to four- to five-fold
